Where a SMILES comes first, the peptide text is derived from it. Bridges are numbered along the chain shown (N, C = ends).
Experiments:
Assay type in all cases: cell-based
hNav1.7 = biological target: T1, hNav1.7 (Homo sapiens, UniProt Q15858); assay: FLIPR membrane potential assay, hNav1.7; settings: for Selectivity for Nav1.7, Nav subtype 1.7: membrane potential assay, reference subtype
T1 construct: host or cells: HEK293
Method: (§1) HEK293 cells stably expressing hNav1.1, hNav1.2, hNav1.3, hNav1.4, hNav1.5, hNav1.6, hNav1.7 and […] (SB Drug Discovery, Glasgow, UK) were cultured in minimum essential media (MEM) containing 10% v/v FBS supplemented with L-glutamine (2 mM) and selection antibiotics G-418 (0.5 mg/mL), blasticidin (2-4 μg/mL) and zeocin (0.5 mg/mL) as recommended by the manufacturer. CHO cells stably expressing hNav1.8 in a tetracycline-inducible system (Chantest, OH, USA) were cultured in Ham's F-12 containing 10% v/v FBS and selection antibiotics as recommended by the manufacturer. To induce hNav1.8 expression, cells were cultured in the presence of tetracycline (1 μg/mL) for 24 h at 27° C. Cells were grown in a humidified 5% CO2 incubator at 37° C., grown to 70-80% confluence, and passaged every 3-4 days using TrypLE Express (Invitrogen).
(§2) Cells were plated 48 h before the assay on 384-well black walled imaging plates at a density of 10,000 to 15,000 cells per well and were loaded with red membrane potential dye for 30 min at 37° C. (Molecular Devices, CA, USA). One vial of bulk red membrane potential dye was reconstituted to a 10× stock solution with PSS and stored at −20° C. and diluted to 1× solution with PSS on the day of the assay. […] Changes in membrane potential were assessed using the FLIPR^TETRA (excitation 515 to 545 nm, emission 565 to 625 nm) every second for 300 s after adding agonists.

hNav1.1 = biological target: T2, hNav1.1 (Homo sapiens, UniProt P35498); assay: FLIPR membrane potential assay, hNav1.1; settings: for Selectivity for Nav1.7, Nav subtype 1.1: membrane potential assay
T2 construct: host or cells: HEK293
Method: as §1, §2

hNav1.4 = biological target: T3, hNav1.4 (Homo sapiens, UniProt P35499); assay: FLIPR membrane potential assay, hNav1.4; settings: for Selectivity for Nav1.7, Nav subtype 1.4: membrane potential assay
T3 construct: host or cells: HEK293
T3 sequence (P35499 whole entry): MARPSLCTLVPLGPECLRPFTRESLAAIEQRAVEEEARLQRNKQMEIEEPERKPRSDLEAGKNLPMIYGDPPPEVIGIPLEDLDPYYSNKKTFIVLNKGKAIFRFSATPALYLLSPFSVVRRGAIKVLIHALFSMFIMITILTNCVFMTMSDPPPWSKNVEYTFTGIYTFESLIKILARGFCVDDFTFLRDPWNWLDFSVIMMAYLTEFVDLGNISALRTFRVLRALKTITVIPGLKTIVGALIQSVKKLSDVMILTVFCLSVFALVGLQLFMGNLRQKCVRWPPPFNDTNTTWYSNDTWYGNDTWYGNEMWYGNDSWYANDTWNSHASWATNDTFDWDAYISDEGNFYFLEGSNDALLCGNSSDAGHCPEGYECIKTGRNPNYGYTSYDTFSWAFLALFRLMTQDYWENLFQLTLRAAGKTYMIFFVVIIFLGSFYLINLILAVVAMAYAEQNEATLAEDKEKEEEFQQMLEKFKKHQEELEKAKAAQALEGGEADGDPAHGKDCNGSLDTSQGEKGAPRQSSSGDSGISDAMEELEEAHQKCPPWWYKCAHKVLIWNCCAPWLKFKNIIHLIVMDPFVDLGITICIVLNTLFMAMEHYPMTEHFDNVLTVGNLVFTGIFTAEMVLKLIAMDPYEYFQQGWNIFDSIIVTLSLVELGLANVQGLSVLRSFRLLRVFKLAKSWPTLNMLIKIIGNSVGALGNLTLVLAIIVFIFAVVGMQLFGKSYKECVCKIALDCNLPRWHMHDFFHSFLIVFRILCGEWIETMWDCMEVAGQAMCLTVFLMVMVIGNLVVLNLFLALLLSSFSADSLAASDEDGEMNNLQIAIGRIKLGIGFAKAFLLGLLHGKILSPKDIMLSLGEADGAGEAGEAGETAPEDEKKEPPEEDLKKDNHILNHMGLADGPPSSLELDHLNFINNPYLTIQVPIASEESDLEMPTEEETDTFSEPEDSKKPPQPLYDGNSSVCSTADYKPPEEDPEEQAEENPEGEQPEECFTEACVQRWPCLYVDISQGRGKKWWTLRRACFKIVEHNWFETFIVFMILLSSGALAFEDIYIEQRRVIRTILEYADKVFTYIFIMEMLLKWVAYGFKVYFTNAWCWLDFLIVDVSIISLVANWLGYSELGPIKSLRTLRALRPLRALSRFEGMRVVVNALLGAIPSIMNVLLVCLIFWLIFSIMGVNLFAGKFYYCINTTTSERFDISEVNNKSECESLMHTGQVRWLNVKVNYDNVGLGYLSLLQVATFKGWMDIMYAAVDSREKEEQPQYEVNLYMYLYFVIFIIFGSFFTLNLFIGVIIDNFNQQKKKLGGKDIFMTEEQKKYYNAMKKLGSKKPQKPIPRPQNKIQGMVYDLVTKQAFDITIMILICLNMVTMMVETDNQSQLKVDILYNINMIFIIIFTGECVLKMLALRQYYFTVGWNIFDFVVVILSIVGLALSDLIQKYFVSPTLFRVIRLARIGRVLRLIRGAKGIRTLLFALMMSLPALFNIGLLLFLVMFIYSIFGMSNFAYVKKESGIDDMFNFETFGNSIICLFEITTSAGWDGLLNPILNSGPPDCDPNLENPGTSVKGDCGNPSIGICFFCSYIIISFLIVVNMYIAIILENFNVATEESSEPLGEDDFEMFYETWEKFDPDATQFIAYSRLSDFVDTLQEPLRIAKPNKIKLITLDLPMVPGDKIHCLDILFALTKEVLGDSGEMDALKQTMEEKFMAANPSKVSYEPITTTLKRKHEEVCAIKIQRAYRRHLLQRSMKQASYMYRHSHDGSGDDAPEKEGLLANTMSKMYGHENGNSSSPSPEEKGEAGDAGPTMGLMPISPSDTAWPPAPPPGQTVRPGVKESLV
Method: as §1, §2

hNav1.2 = biological target: T4, hNav1.2 (Homo sapiens, UniProt Q99250); assay: FLIPR membrane potential assay, hNav1.2; settings: for Selectivity for Nav1.7, Nav subtype 1.2: membrane potential assay
T4 construct: host or cells: HEK293
T4 sequence (Q99250 whole entry): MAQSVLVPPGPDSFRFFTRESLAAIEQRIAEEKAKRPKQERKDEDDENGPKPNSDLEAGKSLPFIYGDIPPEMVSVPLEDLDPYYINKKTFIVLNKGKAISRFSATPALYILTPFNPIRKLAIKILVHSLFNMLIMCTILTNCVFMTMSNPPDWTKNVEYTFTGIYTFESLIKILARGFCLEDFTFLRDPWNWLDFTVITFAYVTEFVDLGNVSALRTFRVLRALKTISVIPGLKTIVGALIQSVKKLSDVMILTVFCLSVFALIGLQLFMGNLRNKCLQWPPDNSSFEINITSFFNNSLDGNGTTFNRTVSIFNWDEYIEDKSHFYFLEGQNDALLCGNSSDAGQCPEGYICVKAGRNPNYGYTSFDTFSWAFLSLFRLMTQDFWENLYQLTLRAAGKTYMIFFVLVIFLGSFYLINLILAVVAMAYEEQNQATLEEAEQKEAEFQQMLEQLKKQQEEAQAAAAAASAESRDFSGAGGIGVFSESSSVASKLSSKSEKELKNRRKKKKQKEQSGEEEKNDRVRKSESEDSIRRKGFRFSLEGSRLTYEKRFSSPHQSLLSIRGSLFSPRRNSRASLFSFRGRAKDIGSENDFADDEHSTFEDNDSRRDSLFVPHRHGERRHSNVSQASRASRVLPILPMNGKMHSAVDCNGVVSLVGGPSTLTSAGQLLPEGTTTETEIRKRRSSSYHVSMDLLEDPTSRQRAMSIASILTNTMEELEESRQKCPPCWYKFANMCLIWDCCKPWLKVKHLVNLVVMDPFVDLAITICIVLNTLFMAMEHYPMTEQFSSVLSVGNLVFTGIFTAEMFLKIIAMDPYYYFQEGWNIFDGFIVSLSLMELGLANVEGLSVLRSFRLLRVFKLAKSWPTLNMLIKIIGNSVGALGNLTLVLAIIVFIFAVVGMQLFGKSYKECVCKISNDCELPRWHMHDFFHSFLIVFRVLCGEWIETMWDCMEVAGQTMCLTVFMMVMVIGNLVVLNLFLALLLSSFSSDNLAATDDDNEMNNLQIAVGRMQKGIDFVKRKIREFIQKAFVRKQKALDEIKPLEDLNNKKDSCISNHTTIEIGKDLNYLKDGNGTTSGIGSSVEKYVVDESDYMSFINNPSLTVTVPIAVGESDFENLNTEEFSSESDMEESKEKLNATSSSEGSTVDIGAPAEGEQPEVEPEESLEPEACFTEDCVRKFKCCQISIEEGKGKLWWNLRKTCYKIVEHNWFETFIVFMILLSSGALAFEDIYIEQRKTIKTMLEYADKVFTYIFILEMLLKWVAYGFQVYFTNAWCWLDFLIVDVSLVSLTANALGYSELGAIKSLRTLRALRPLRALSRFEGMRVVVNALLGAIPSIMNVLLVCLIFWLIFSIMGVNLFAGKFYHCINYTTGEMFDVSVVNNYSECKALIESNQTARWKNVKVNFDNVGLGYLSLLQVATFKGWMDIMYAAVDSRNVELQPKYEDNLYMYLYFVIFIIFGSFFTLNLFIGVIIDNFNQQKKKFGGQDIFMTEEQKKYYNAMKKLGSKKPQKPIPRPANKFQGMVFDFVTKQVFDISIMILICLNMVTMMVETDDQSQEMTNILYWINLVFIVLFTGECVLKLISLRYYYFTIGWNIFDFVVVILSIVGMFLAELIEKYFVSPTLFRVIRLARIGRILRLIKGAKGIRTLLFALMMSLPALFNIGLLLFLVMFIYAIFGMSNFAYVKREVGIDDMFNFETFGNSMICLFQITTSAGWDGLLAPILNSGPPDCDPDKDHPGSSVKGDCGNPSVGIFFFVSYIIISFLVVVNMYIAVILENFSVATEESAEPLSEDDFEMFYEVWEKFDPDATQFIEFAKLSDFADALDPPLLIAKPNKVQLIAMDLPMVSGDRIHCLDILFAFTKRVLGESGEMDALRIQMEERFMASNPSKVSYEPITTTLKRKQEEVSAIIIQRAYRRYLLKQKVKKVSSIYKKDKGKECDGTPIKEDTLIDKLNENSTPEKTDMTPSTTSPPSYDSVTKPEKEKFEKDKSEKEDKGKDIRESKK
Method: as §1, §2

hNav1.6 = biological target: T5, hNav1.6 (Homo sapiens, UniProt Q9UQD0); assay: FLIPR membrane potential assay, hNav1.6; settings: for Selectivity for Nav1.7, Nav subtype 1.6: membrane potential assay
T5 construct: host or cells: HEK293
Method: as §1, §2

hNav1.5 = biological target: T6, hNav1.5 (Homo sapiens, UniProt Q14524); assay: FLIPR membrane potential assay, hNav1.5; settings: for Selectivity for Nav1.7, Nav subtype 1.5: membrane potential assay
T6 construct: host or cells: HEK293
Method: as §1, §2

hNav1.3 = biological target: T7, hNav1.3 (Homo sapiens, UniProt Q9NY46); assay: FLIPR membrane potential assay, hNav1.3; settings: for Selectivity for Nav1.7, Nav subtype 1.3: membrane potential assay
T7 construct: host or cells: HEK293
Method: as §1, §2

hNav1.8 = biological target: T8, hNav1.8 (Homo sapiens, UniProt Q9Y5Y9); assay: FLIPR membrane potential assay, hNav1.8; settings: for Selectivity for Nav1.7, Nav subtype 1.8: membrane potential assay
T8 construct: host or cells: HEK293
Method: as §1, §2

| Structure (SMILES) | IC50 (hNav1.7) | Selectivity for Nav1.7, Nav subtype 1.7 (hNav1.7) | IC50 (hNav1.1) | Selectivity for Nav1.7, Nav subtype 1.1 (hNav1.1) | IC50 (hNav1.4) | Selectivity for Nav1.7, Nav subtype 1.4 (hNav1.4) | IC50 (hNav1.2) | Selectivity for Nav1.7, Nav subtype 1.2 (hNav1.2) | IC50 (hNav1.6) | Selectivity for Nav1.7, Nav subtype 1.6 (hNav1.6) | IC50 (hNav1.5) | Selectivity for Nav1.7, Nav subtype 1.5 (hNav1.5) | IC50 (hNav1.3) | Selectivity for Nav1.7, Nav subtype 1.3 (hNav1.3) | IC50 (hNav1.8) | Selectivity for Nav1.7, Nav subtype 1.8 (hNav1.8) |
| --- | --- | --- | --- | --- | --- | --- | --- | --- | --- | --- | --- | --- | --- | --- | --- | --- |
| CSCC[C@@H]1NC(=O)[C@H](Cc2ccc(O)cc2)NC(=O)[C@H](CCCNC(=N)N)NC(=O)[C@@H](NC(=O)[C@H](CC(=O)O)NC(=O)[C@@H](N)CO)CSSC[C@@H]2NC(=O)[C@@H]3CSSC[C@@H](C(=O)N[C@@H](C)C(=O)N[C@@H](Cc4c[nH]c5ccccc45)C(=O)N[C@@H](CC(=O)O)C(=O)N[C@@H](Cc4ccccc4)C(=O)N[C@H](C(=O)N[C@@H](Cc4ccccc4)C(=O)N[C@H](C(=O)O)[C@@H](C)O)[C@@H](C)O)NC(=O)[C@H](Cc4ccc(O)cc4)NC(=O)[C@H](CCCCN)NC(=O)[C@H](CCSC)NC(=O)[C@H](CCCCN)NC(=O)[C@H](CCCNC(=N)N)NC(=O)[C@H](CCCCN)NC(=O)[C@H](CSSC[C@H](NC(=O)[C@H](CC(=O)O)NC(=O)CNC(=O)[C@H](Cc4ccccc4)NC1=O)C(=O)N[C@@H](CCC(=O)O)C(=O)N[C@@H](CCCCN)C(=O)N[C@@H](CC(=O)O)C(=O)N[C@@H](CCC(=O)O)C(=O)N[C@@H](CC(=O)O)C(=O)N3)NC(=O)CNC(=O)[C@H](CC(C)C)NC(=O)[C@H](Cc1c[nH]cn1)NC(=O)[C@H](CCCCN)NC2=O [S0-Pnc1a] (H-SDCRYMFGDCEKDEDCCKHLGCKRKMKYCAWDFTFT-OH; disulfide 3-17, 10-22, 16-29) | 0.282 µM | 1 | 9 µM | 32 | 11 µM | 40 | 3 µM | 10 | 19 µM | 68 | > 30 µM | >107 | 6 µM | 22 | > 30 µM | >107 |
| CSCC[C@@H]1NC(=O)[C@H](Cc2ccc(O)cc2)NC(=O)[C@H](CCCNC(=N)N)NC(=O)[C@@H](NC(=O)[C@@H](N)CC(=O)O)CSSC[C@@H]2NC(=O)[C@@H]3CSSC[C@@H](C(=O)N[C@@H](C)C(=O)N[C@@H](Cc4c[nH]c5ccccc45)C(=O)N[C@@H](CC(=O)O)C(=O)N[C@@H](Cc4ccccc4)C(=O)N[C@H](C(=O)N[C@@H](Cc4ccccc4)C(=O)N[C@H](C(=O)O)[C@@H](C)O)[C@@H](C)O)NC(=O)[C@H](Cc4ccc(O)cc4)NC(=O)[C@H](CCCCN)NC(=O)[C@H](CCSC)NC(=O)[C@H](CCCCN)NC(=O)[C@H](CCCNC(=N)N)NC(=O)[C@H](CCCCN)NC(=O)[C@H](CSSC[C@H](NC(=O)CNC(=O)CNC(=O)[C@H](Cc4ccccc4)NC1=O)C(=O)N[C@@H](CCC(=O)O)C(=O)N[C@@H](CCCCN)C(=O)N[C@@H](CC(=O)O)C(=O)N[C@@H](CCC(=O)O)C(=O)N[C@@H](CC(=O)O)C(=O)N3)NC(=O)CNC(=O)[C@H](CC(C)C)NC(=O)[C@H](Cc1c[nH]cn1)NC(=O)[C@H](CCCCN)NC2=O [[D8G]Pnc1a] (H-DCRYMFGGCEKDEDCCKHLGCKRKMKYCAWDFTFT-OH; disulfide 2-16, 9-21, 15-28) | 0.049 µM | 1 | 2 µM | 35 | 2 µM | 48 | 0.301 µM | 6 | 2 µM | 46 | > 30 µM | >616 | 0.658 µM | 13 | > 30 µM | >616 |
| CSCC[C@@H]1NC(=O)[C@H](Cc2ccc(O)cc2)NC(=O)[C@H](CCCNC(=N)N)NC(=O)[C@@H](NC(=O)[C@@H](N)CC(=O)O)CSSC[C@@H]2NC(=O)[C@@H]3CSSC[C@@H](C(=O)N[C@@H](C)C(=O)N[C@@H](Cc4c[nH]c5ccccc45)C(=O)N[C@@H](CC(=O)O)C(=O)N[C@@H](Cc4ccccc4)C(=O)N[C@H](C(=O)N[C@@H](Cc4ccccc4)C(=O)N[C@H](C(N)=O)[C@@H](C)O)[C@@H](C)O)NC(=O)[C@H](Cc4ccc(O)cc4)NC(=O)[C@H](CCCCN)NC(=O)[C@H](CCSC)NC(=O)[C@H](CCCCN)NC(=O)[C@H](CCCNC(=N)N)NC(=O)[C@H](CCCCN)NC(=O)[C@H](CSSC[C@H](NC(=O)[C@H](CC(=O)O)NC(=O)CNC(=O)[C@H](Cc4ccccc4)NC1=O)C(=O)N[C@@H](CCC(=O)O)C(=O)N[C@@H](CCCCN)C(=O)N[C@@H](CC(=O)O)C(=O)N[C@@H](CCC(=O)O)C(=O)N[C@@H](CC(=O)O)C(=O)N3)NC(=O)CNC(=O)[C@H](CC(C)C)NC(=O)[C@H](Cc1c[nH]cn1)NC(=O)[C@H](CCCCN)NC2=O [Pnc1a-CONH2] | – | – | 8 µM | – | 16 µM | – | 3 µM | – | 20 µM | – | > 30 µM | – | 7 µM | – | > 30 µM | – |
| CSCC[C@@H]1NC(=O)[C@H](Cc2ccc(O)cc2)NC(=O)[C@H](CCCNC(=N)N)NC(=O)[C@@H](NC(=O)[C@H](CC(=O)O)NC(C)=O)CSSC[C@@H]2NC(=O)[C@@H]3CSSC[C@@H](C(=O)N[C@@H](C)C(=O)N[C@@H](Cc4c[nH]c5ccccc45)C(=O)N[C@@H](CC(=O)O)C(=O)N[C@@H](Cc4ccccc4)C(=O)N[C@H](C(=O)N[C@@H](Cc4ccccc4)C(=O)N[C@H](C(=O)O)[C@@H](C)O)[C@@H](C)O)NC(=O)[C@H](Cc4ccc(O)cc4)NC(=O)[C@H](CCCCN)NC(=O)[C@H](CCSC)NC(=O)[C@H](CCCCN)NC(=O)[C@H](CCCNC(=N)N)NC(=O)[C@H](CCCCN)NC(=O)[C@H](CSSC[C@H](NC(=O)[C@H](CC(=O)O)NC(=O)CNC(=O)[C@H](Cc4ccccc4)NC1=O)C(=O)N[C@@H](CCC(=O)O)C(=O)N[C@@H](CCCCN)C(=O)N[C@@H](CC(=O)O)C(=O)N[C@@H](CCC(=O)O)C(=O)N[C@@H](CC(=O)O)C(=O)N3)NC(=O)CNC(=O)[C@H](CC(C)C)NC(=O)[C@H](Cc1c[nH]cn1)NC(=O)[C@H](CCCCN)NC2=O [Ac-Pnc1a] | – | – | 23 µM | – | 14 µM | – | 5 µM | – | 16 µM | – | > 30 µM | – | 8 µM | – | > 30 µM | – |
| CSCC[C@@H]1NC(=O)[C@H](Cc2ccc(O)cc2)NC(=O)[C@H](CCCNC(=N)N)NC(=O)[C@@H](NC(=O)[C@@H](N)CC(=O)O)CSSC[C@@H]2NC(=O)[C@@H]3CSSC[C@@H](C(=O)N[C@@H](C)C(=O)N[C@@H](Cc4c[nH]c5ccccc45)C(=O)N[C@@H](CC(=O)O)C(=O)N[C@@H](Cc4ccccc4)C(=O)N[C@H](C(=O)N[C@@H](Cc4ccccc4)C(=O)N[C@H](C(=O)O)[C@@H](C)O)[C@@H](C)O)NC(=O)[C@H](Cc4ccc(O)cc4)NC(=O)[C@H](CCCCN)NC(=O)[C@H](CCSC)NC(=O)[C@H](CCCCN)NC(=O)[C@H](CCCNC(=N)N)NC(=O)[C@H](CCCCN)NC(=O)[C@H](CSSC[C@H](NC(=O)[C@H](CC(=O)O)NC(=O)CNC(=O)[C@H](Cc4ccccc4)NC1=O)C(=O)N[C@@H](CCC(=O)O)C(=O)N[C@@H](CCCCN)C(=O)N[C@@H](CC(=O)O)C(=O)N[C@@H](CCCCN)C(=O)N[C@@H](CC(=O)O)C(=O)N3)NC(=O)CNC(=O)[C@H](CC(C)C)NC(=O)[C@H](Cc1c[nH]cn1)NC(=O)[C@H](CCCCN)NC2=O [[E13K]Pnc1a] (H-DCRYMFGDCEKDKDCCKHLGCKRKMKYCAWDFTFT-OH; disulfide 2-16, 9-21, 15-28) | – | 1 | – | – | 2 µM | 27 | 0.378 µM | 4 | 1 µM | 14 | > 30 µM | >300 | 6 µM | 66 | > 30 µM | >300 |

Source: patent publication US10662229B2, “Spider venom peptides and methods of use for modulating sodium channels” (priority 2016, dated 2020)
